In series [1] the test system is gram-positive and gram-negative microorganisms. The settings on record: cited from earlier work.
For series [2] the following is noted: oral administration, cited from earlier work.
For series [3] the following is noted: cited from earlier work.
The nature of series [4]: Behaviour of amorphous cefuroxime axetil in contact with water (conversion to crystalline form, gel formation). In kind it is physicochemical. Conditions: formulation with sodium salt of citric acid.

Here are results for 3 compounds from US6323193A, “Bioavailable oral dosage form of cefuroxime axetil” (Ranbaxy Laboratories Limited, priority 1999, dated 2001).

Where two headings read alike, the source gives them in different places.

With `CO/N=C(\C(=O)N[C@@H]1C(=O)N2C(C(=O)OC(C)OC(C)=O)=C(COC(N)=O)CS[C@H]12)c1ccco1` (stereo partly shown) [Cefuroxime axetil, 1-acetoxyethyl ester of cefuroxime], the spectrum of activity entry in series [1] is listed as “broad spectrum of activity”.
In the case of `CO/N=C(\C(=O)N[C@@H]1C(=O)N2C(C(=O)OC(C)OC(C)=O)=C(COC(N)=O)CS[C@H]12)c1ccco1` (stereo partly shown) [Crystalline cefuroxime axetil], in series [2], the bioavailability result is on record as “does not exhibit adequate bioavailability”.
As to `CO/N=C(\C(=O)N[C@@H]1C(=O)N2C(C(=O)OC(C)OC(C)=O)=C(COC(N)=O)CS[C@H]12)c1ccco1` (stereo partly shown) [amorphous cefuroxime axetil], the bioavailability entry in series [2] (listed as amorphous form of cefuroxime axetil) is “high bioavailability”; in series [2] (listed as highly pure amorphous cefuroxime axetil), “higher bioavailability than crystalline cefuroxime axetil”. Further, the gel formation entry in series [3] (contact with water) was “forms a gel which prolongs the disintegration and retards the dissolution”. Moreover, the “conversion to the crystalline form” value in series [3] (upon contact with water) is “gets converted to the crystalline form”. Further, the “tendency to form a gel on addition of a sodium salt of citric acid” value in series [4] is on record as “inhibits the tendency of amorphous cefuroxime axetil to form a gel”.
